Target: Steroidogenic factor 1 (Homo sapiens, UniProt Q13285)
Experiment: SF-1 activators, concentration-response, dose response, cell-based, CHO-K1, Gal4-SF-1 LBD, luciferase luminescence (AID 692)
[1] = inactive by the depositor's call

Sequence of Steroidogenic factor 1 (Q13285 whole entry, the tested form may be a part): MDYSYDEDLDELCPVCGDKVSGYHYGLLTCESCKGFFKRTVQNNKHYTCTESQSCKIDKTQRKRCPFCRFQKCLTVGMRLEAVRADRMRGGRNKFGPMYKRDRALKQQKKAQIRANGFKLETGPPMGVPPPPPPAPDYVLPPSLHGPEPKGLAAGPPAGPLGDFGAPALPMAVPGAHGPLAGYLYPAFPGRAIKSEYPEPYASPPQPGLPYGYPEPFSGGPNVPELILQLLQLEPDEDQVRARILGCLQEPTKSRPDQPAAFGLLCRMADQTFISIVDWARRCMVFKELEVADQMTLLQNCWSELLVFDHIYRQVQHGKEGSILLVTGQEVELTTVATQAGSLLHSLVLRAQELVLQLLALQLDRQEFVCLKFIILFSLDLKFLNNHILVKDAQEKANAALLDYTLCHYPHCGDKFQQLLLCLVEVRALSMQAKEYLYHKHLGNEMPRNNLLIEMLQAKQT

SMILES	EC50 [nM]	EC50 [1] [nM]
COc1ccc(C(=O)CC=Nc2cccc(C)n2)cc1OC	401	
CC(=O)c1c(C)[nH]c(C(=O)Nc2ccc3c(c2)OCCO3)c1C	466	
COc1ccc2c(c1OC)C(=O)N1c3ccccc3SC21 (stereo not given) [1,2-dimethoxy-4bH-isoindolo[1,2-b][1,3]benzothiazol-11-one]	827	
O=C(CSc1ccccn1)c1ccc2c(c1)OCO2 [1-(1,3-benzodioxol-5-yl)-2-(2-pyridinylthio)ethanone]	1160	
O=C(COc1ncnc2ccccc12)c1ccc2c(c1)OCCO2 [1-(2,3-dihydro-1,4-benzodioxin-6-yl)-2-(4-quinazolinyloxy)ethanone]	396	
CCCn1c(C)cc(C(=O)COc2ncnc3sccc23)c1C [1-(2,5-dimethyl-1-propyl-3-pyrrolyl)-2-(4-thieno[2,3-d]pyrimidinyloxy)ethanone]	585	
N#CCc1ccc(NC(=O)Nc2cccc(Cl)c2)cc1 [1-(3-chlorophenyl)-3-[4-(cyanomethyl)phenyl]urea]	2430	
CN(C)c1ccc(NC(=O)Nc2cccc(Cl)c2)cc1 [1-(3-chlorophenyl)-3-[4-(dimethylamino)phenyl]urea]	386	
Clc1ccc(-n2ncc3c(NCc4ccccn4)ncnc32)cc1 [1-(4-chlorophenyl)-N-(2-pyridinylmethyl)-4-pyrazolo[3,4-d]pyrimidinamine]	2800	
COc1ccc2nc(Nc3nc(C)c(C(C)=O)s3)sc2c1 [1-[2-[(6-methoxy-1,3-benzothiazol-2-yl)amino]-4-methyl-1,3-thiazol-5-yl]ethanone]	572	
O=C(Cc1ccccc1)n1nc(-c2ccccc2)nc1NCc1ccco1 [1-[5-(2-furanylmethylamino)-3-phenyl-1,2,4-triazol-1-yl]-2-phenylethanone]		11300
Fc1cnc(N2CCOCC2)nc1N1CCc2ccccc21 [1-[5-fluoro-2-(4-morpholinyl)-4-pyrimidinyl]indoline]		13700
CCOC(=O)C1CCN(S(=O)(=O)c2ccc(-c3nc4ccccc4s3)s2)CC1 [1-[[5-(1,3-benzothiazol-2-yl)-2-thienyl]sulfonyl]isonipecotic acid ethyl ester]	2170	
COc1ccc2c(c1)CCc1c(C(=O)N3CCCCCC3)noc1-2 [1-azepanyl-(7-methoxy-4,5-dihydrobenzo[g][1,2]benzoxazol-3-yl)methanone]	1320	
COc1ccc(CNC(=O)NC2CCCCC2)cc1 [1-cyclohexyl-3-[(4-methoxyphenyl)methyl]urea]	> 11000	
COc1ccc(-c2cc(C(=O)N3CCCCC3)no2)cc1OC [1-{[5-(3,4-dimethoxyphenyl)isoxazol-3-yl]carbonyl}piperidine]	3840	
Cc1cc(C(=O)OCC(=O)N2CCc3ccccc32)c(C)o1 [2,5-dimethyl-3-furancarboxylic acid [2-(2,3-dihydroindol-1-yl)-2-oxoethyl] ester]	1240	
CC(C)(C)n1ncc2c(=O)n(CC(=O)NCc3ccccc3Cl)cnc21 [2-(1-tert-butyl-4-keto-pyrazolo[3,4-d]pyrimidin-5-yl)-N-(2-chlorobenzyl)acetamide]	138	
COc1cc(N2CCCC2)c(OC)cc1C=c1sc2nc3ccccc3n2c1=O [2-(2,5-dimethoxy-4-pyrrolidino-benzylidene)thiazolo[3,2-a]benzimidazol-1-one]	14600	
CCn1c(SCC(=O)c2cccs2)nnc1-c1ccco1 [2-(4-Ethyl-5-furan-2-yl-4H-[1,2,4]triazol-3-ylsulfanyl)-1-thiophen-2-yl-ethanone]	9840	

SMILES	EC50 [nM]	EC50 [1] [nM]
CN(C)c1oc(-c2ccc(OCc3ccccc3)cc2)nc1C#N [2-(4-benzoxyphenyl)-5-(dimethylamino)oxazole-4-carbonitrile]	5210	
CCOc1ccc(N2C(=O)c3ccccc3C2O)cc1 (stereo not given) [2-(4-ethoxyphenyl)-3-hydroxy-3H-isoindol-1-one]	1250	
O=C(CSc1nc2ccccc2o1)Nc1nc2ccccc2s1 [2-(Benzooxazol-2-ylsulfanyl)-N-benzothiazol-2-yl-acetamide]	> 99000	
Cc1cccc(-n2ccnc2SCC(=O)Nc2nccs2)c1 [2-[1-(3-methylphenyl)imidazol-2-yl]sulfanyl-N-(1,3-thiazol-2-yl)acetamide]		10900
C=CCn1c(C)cc(C(=O)CSc2nc(O)c3ccccc3n2)c1C [2-[2-(2,5-dimethyl-1-prop-2-enyl-pyrrol-3-yl)-2-oxidanylidene-ethyl]sulfanyl-1H-quinazolin-4-one]	410	
OCCOCCNc1ncnc2c1cnn2-c1ccc(Cl)cc1 [2-[2-[[1-(4-chlorophenyl)-4-pyrazolo[3,4-d]pyrimidinyl]amino]ethoxy]ethanol]	434	
CCOC(=O)CSc1nc2ccccc2c(=O)n1NC(=O)c1ccccc1 [2-[(3-benzamido-4-keto-quinazolin-2-yl)thio]acetic acid ethyl ester]	1360	
CCc1nnc(NC(=O)CSc2nc3c(cc2C#N)CCC3)s1 [2-[(3-cyano-1-pyrindan-2-yl)thio]-N-(5-ethyl-1,3,4-thiadiazol-2-yl)acetamide]	1210	
CCOC(=O)CSc1nc(-c2ccncc2)ccc1C#N [2-[(3-cyano-6-pyridin-4-yl-2-pyridinyl)thio]acetic acid ethyl ester]	1620	
Cc1csc2nc(CSc3nc4ccccc4o3)cn12 [2-[(3-methyl-6-imidazo[2,1-b]thiazolyl)methylthio]-1,3-benzoxazole]	> 3670	
Nn1c(SCC(=O)Nc2ccc(F)cc2F)nnc1-c1cccnc1 [2-[(4-amino-5-pyridin-3-yl-1,2,4-triazol-3-yl)sulfanyl]-N-(2,4-difluorophenyl)acetamide]	> 11000	
CCc1nnc(NC(=O)CSc2nc(C)c3c(c2C#N)CCCC3)s1 [2-[(4-cyano-1-methyl-5,6,7,8-tetrahydroisoquinolin-3-yl)sulfanyl]-N-(5-ethyl-1,3,4-thiadiazol-2-yl)acetamide]	1690	
O=C1CCCC(=O)C1=CNc1ccc(O)cc1 [2-[(4-hydroxyanilino)methylidene]cyclohexane-1,3-dione]	3760	
CCOC(=O)CSc1nc(-c2ccc3c(c2)OCO3)ccc1C#N [2-[[6-(1,3-benzodioxol-5-yl)-3-cyano-2-pyridinyl]thio]acetic acid ethyl ester]	> 3670	
O=C(CNc1ccccc1)Nc1ccc(F)cc1 [2-anilino-N-(4-fluorophenyl)acetamide]		11400
Cc1nc2sc(-c3ccccc3)cc2c(=O)n1-n1cccc1 [2-methyl-6-phenyl-3-(1-pyrrolyl)-4-thieno[2,3-d]pyrimidinone]	477	
Cc1ccc(C(=O)Nc2nnc(-c3cccs3)s2)cc1C [3,4-dimethyl-N-(5-thiophen-2-yl-1,3,4-thiadiazol-2-yl)benzamide]	989	
Cc1ccc(-n2c(C)cc(C(=O)COC(=O)c3c(C)noc3C)c2C)cc1 [3,5-dimethyl-4-isoxazolecarboxylic acid [2-[2,5-dimethyl-1-(4-methylphenyl)-3-pyrrolyl]-2-oxoethyl] ester]	1800	
COc1cc(C2c3c(c(O)n(-c4ccccc4)c3O)ON2c2ccccc2)ccc1O (stereo not given) [3-(3-methoxy-4-oxidanyl-phenyl)-2,5-diphenyl-3a,6a-dihydro-3H-pyrrolo[3,4-d][1,2]oxazole-4,6-dione]	31900	
COc1ccc2nc3sc(C(=O)NCc4cccs4)c(N)c3cc2c1 [3-Amino-6-methoxy-thieno[2,3-b]quinoline-2-carboxylic acid (thiophen-2-ylmethyl)-amide]	403	

Reference: BindingDB's records for doi:10.7270/Q23T9FMP (The Scripps Research Institute Molecular Screening Center, 2007)
